Results: the NIST ThermoML archive (doi:10.1021/je900027h)
Numbers after ± are expanded uncertainties.

Conditions: Crystal; DTA

Normal melting temperature: 104.92 ± 0.5 °C
SMILES: c1ccc2c(c1)ccc1ccccc12 [phenanthrene]
